Data: patent US20240409538A1, “SUBSTITUTED TRIAZOLOHETEROARYL COMPOUNDS AS USP1 INHIBITORS AND THE USE THEREOF” (IMPACT THERAPEUTICS (SHANGHAI), INC., priority 2021, published 2024)

Legend:
[1] = tested on: BRCA mutant human breast cancer MDA-MB-436 cell line; assay: Growth inhibition of MDA-MB-436 cells, CTG (Celltiter-Glo) method; assay type: cell-based; conditions: MDA-MB-436, 168 h, 7 days incubation, read-out: IC50 (nM), inhibition of proliferation of MDA-MB-436 cells, CTG method
Description: (§1) The cells were cultured in complete medium (DMEM medium+10% FBS+Insulin+glutathione). When the confluence reached about 80%, cells were digested and gently dispensed from the bottom of the dish with a 1 mL pipette. Cell suspension was collected and centrifuged at 500 rpm for 3 min. The supernatant was discarded, and the cell pellet were re-suspended in complete medium. The cells were seeded into a culture dish at an appropriate proportion, and then cultured in a 5% CO2 incubator at 37° C. The assay was carried out when the cells were in optimum condition and the confluence was reached 80%. Cells in the logarithmic growth phase were taken to centrifugate, and the culture supernatant was removed. The cells were resuspended in refresh complete medium and counted. The resuspended cells were seeded at 3000/well in a 96-well plate and incubated at 37° C., 5% CO2 incubator overnight. The compound was prepared as below: 1000× dilution tested compound solution to 40× test compound solution by adding 5 μL 1000× compound solution to 120 μL Medium (25-fold dilution). The solution was mixed by oscillation, 0.1% DMSO was used as the control.
(§2) The next day, the 96-well plate inoculated with cells was taken out from the incubator, and the culture supernatant was removed. Then fresh medium of 195 uL/well and 5 μL/well of 40× test compound solution as mentioned above were added into the 96 well plate, respectively. Finally, the plate was incubated for 7 days in a 37° C. 5% CO2 incubator. The medium containing compound was changed on the fourth day.
CTG Method: After 7 days, 100 μL Celltiter-Glo reagent was added to each well, and then the plate was shake for 2 minutes to fully lysate. Then the plate was incubated at room temperature for 10 minutes, and the chemiluminescence values were read by plate reader.
The inhibitory activity of compounds on cell proliferation was plotted using cell survival rate against the compound concentration as coordinates. Cell inhibition rate %=(Lumcompound−LumDMSO)/(Lummedium−LumDMSO)×100. Lum refers to the chemiluminescence value.
XL Fit software was used to Fit nonlinear s-curve regression to Fit the data to obtain dose-effect curves, from which IC50 values were calculated. Y=Bottom+(Top−Bottom)/(1+10^((Log IC50−X)×slope)), Where Y is the cell inhibition rate, X is the compound concentration, Bottom is the lowest inhibition rate. Top is the highest inhibition rate.
Table 2 summarizes the inhibitory effect data (IC50) of the compounds on the proliferation of human breast cancer cells MDA-MB-436 determined by CTG method.

[2] = tested on: BRCA mutant human breast cancer MDA-MB-436 cell line; assay: Growth inhibition of MDA-MB-436 cells, CCK-8 method; assay type: cell-based; conditions: MDA-MB-436, 168 h, 7 days incubation, read-out: IC50 (nM), inhibition of proliferation of MDA-MB-436 cells, CCK-8 method
Description: as §1, §2
CCK Method: After 7 days, 20 μL of CCK-8 was added to each well and shaken gently, then was cultured for 4 hours. The plate was shaken for 5 min after incubation, the absorbance values of 450 nm or 650 nm wavelengths were recorded respectively (OD=absorbance value of 450 nm−absorbance value of 650 nm) by using the multifunction readout instrument.
Data were analyzed by software GraphPad Prism 6.0. The inhibitory activity of compounds on cell proliferation was plotted using cell survival rate against the compound concentration as coordinates. Cell survival rate %=(ODcompound−ODbackground)/(ODDMSO−ODbackground)×100. The IC50 value was fitted by the s-shaped dose response curve equation: Y=100/(1+10^(log C−log IC50)), and C was the compound concentration.
Table 3 summarizes the inhibitory effect data (IC50) of the compounds on the proliferation of human breast cancer cells MDA-MB-436 determined by CCK-8 method.

USP1/UAF1 = USP1/UAF1 (Homo sapiens (Human), UniProt O94782); assay: USP1/UAF1 activity, ubiquitin-rhodamine110-glycine (Ub-Rho) assay; assay type: biochemical; conditions: 0.1 nM USP1/UAF1, 100 nM Ub-Rho, 120 minutes; read-out: IC50 (nM), inhibitory effects on USP1/UAF1 activity
Description: USP1/UAF1 activity was determined by using ubiquitin-rhodamine110-glycine (Ub-Rho; Boston Biochem) assay. Enzymatic reactions were conducted in an assay buffer (50 mM Tris-HCl, pH 7.8, 0.5 mM EDTA, 100 mM NaCl, 1 mM DTT, 0.01 BSA, and 0.01% Tween-20) that contained 0.1 nM USP1/UAF1. Each individual compound was tested at ten concentrations in the range of 0.0005 to 10 μM. The plates were incubated for 15 min to attain equilibrium, and then the enzymatic reaction was initiated by dispensing 10 μL of Ub-Rho solution (100 nM final concentration). After treating 120 minutes with Ub-Rho solution, the rhodamine fluorescence was acquired using a 480 nm excitation/540 nm emission filter set by using Envision instrument. The inhibition rate of the compound to USP1/UAF1 enzyme activity was calculated according to the following formula.
IC50 value is obtained by fitting the s-shaped dose response curve equation by using XL Fit software. The curve equation is Y=100/(1+10^(log C−log IC50)). C is the compound concentration.

Chain of USP1/UAF1 (O94782 whole entry): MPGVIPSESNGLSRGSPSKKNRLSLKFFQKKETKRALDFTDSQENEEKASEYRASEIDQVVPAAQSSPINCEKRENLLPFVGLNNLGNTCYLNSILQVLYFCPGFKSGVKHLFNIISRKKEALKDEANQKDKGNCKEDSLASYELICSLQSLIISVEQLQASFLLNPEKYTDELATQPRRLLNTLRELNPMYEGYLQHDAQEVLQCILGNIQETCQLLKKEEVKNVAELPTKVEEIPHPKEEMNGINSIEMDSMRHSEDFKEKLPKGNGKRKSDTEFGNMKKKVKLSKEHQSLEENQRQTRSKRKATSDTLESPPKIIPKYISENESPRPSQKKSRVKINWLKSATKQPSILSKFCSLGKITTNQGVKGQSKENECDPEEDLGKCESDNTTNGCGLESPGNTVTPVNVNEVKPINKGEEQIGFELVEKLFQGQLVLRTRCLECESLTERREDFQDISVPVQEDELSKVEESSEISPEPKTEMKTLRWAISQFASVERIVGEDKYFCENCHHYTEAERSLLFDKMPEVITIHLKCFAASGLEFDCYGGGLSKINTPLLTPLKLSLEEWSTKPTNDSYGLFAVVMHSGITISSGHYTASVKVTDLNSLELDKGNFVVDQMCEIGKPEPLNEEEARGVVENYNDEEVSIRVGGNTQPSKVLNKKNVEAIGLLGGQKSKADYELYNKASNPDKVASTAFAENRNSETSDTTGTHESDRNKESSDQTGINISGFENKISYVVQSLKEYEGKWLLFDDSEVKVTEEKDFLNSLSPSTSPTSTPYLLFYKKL
Chain of USP1/UAF1 (Q8TAF3 whole entry partner): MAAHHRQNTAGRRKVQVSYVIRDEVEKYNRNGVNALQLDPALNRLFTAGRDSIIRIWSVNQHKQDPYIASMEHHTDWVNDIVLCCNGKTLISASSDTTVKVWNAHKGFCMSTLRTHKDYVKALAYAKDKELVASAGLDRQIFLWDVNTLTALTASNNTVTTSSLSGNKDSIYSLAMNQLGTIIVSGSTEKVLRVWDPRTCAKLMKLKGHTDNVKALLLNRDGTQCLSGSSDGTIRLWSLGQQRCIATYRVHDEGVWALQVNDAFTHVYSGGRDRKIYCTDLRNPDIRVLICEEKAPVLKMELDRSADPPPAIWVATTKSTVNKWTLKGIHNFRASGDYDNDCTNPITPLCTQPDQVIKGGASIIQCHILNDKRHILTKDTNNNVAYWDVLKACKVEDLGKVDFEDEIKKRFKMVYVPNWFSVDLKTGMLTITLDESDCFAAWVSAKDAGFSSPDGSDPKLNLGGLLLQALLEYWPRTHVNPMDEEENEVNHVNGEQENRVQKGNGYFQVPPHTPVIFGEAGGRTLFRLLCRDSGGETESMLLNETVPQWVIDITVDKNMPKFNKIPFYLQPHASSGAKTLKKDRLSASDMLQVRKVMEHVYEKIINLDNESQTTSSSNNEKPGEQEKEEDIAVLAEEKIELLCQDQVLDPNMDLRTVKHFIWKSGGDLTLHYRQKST

Row | Compound | IC50 [1] | IC50 [2] | IC50 (USP1/UAF1)
1 | Cc1cn(C)c(-c2ccc(Cc3cccn4nc(-c5ccccc5C(C)C)nc34)cc2)n1 [Example 1, 8-(4-(1,4-dimethyl-1H-imidazol-2-yl)benzyl)-2-(2-isopropylphenyl)-[1,2,4]triazolo[1,5-a]pyridine] | 161 nM |  | 
2 | COc1ccccc1-c1nc2c(Cc3ccc(-c4nc(C)cn4C)cc3)cccn2n1 [Example 2, 8-(4-(1,4-dimethyl-1H-imidazol-2-yl)benzyl)-2-(2-methoxyphenyl)-[1,2,4]triazolo[1,5-a]pyridine] | > 1000 nM |  | 
3 | CC(C)c1ccccc1-c1nc2c(Cc3ccc(-c4nc(C(F)(F)F)cn4C)cc3)cccn2n1 [Example 3, 2-(2-isopropylphenyl)-8-(4-(1-methyl-4-(trifluoromethyl)-1H-imidazol-2-yl)benzyl)-[1,2,4]triazolo[1,5-a]pyridine] | 57.6 nM | 111 nM | 
4 | COc1ncnc(C2CC2)c1-c1nc2c(Cc3ccc(-c4nc(C(F)(F)F)cn4C(C)C)cc3)cccn2n1 [Example 4, 2-(4-cyclopropyl-6-methoxypyrimidin-5-yl)-8-(4-(1-isopropyl-4-(trifluoromethyl)-1H-imidazol-2-yl)benzyl)-[1,2,4]triazolo[1,5-a]pyridine] |  | 25.5 nM | 66.6 nM
5 | COc1ncnc(C2CC2)c1-c1nc2c(Cc3ccc(-c4nc(C(F)(F)F)cn4C)cc3)cccn2n1 [Example 5, 2-(4-cyclopropyl-6-methoxypyrimidin-5-yl)-8-(4-(1-methyl-4-(trifluoromethyl)-1H-imidazol-2-yl)benzyl)-[1,2,4]triazolo[1,5-a]pyridine] |  | 38.8 nM | 39.1 nM
6 | COc1ncnc(C2CC2)c1-c1nc2c(Cc3ccc(-n4nc(C(F)(F)F)cc4C)cc3)cccn2n1 [Example 6, 2-(4-cyclopropyl-6-methoxypyrimidin-5-yl)-8-(4-(5-methyl-3-(trifluoromethyl)-1H-pyrazol-1-yl)benzyl)-[1,2,4]triazolo[1,5-a]pyridine] |  | 28.3 nM | 460 nM
7 | COc1ncnc(C2CC2)c1-c1nc2cccc(Cc3ccc(-c4nc(C(F)(F)F)cn4C)cc3)n2n1 [Example 14, 2-(4-cyclopropyl-6-methoxypyrimidin-5-yl)-5-(4-(1-methyl-4-(trifluoromethyl)-1H-imidazol-2-yl)benzyl)-[1,2,4]triazolo[1,5-a]pyridine] | 21.6 nM | 26.4 nM | 30.6 nM
8 | Cc1cnn(C(C)C)c1-c1nc2c(Cc3ccc(-c4nc(C(F)(F)F)cn4C)cc3)cccn2n1 [Example 16, 2-(1-isopropyl-4-methyl-1H-pyrazol-5-yl)-8-(4-(1-methyl-4-(trifluoromethyl)-1H-imidazol-2-yl)benzyl)-[1,2,4]triazolo[1,5-a]pyridine] |  | 13.2 nM | 15.8 nM
9 | Cc1cnn(C(C)C)c1-c1nc2c(Cc3ccc(-c4nc(C(F)(F)F)cn4C)cc3)ccnn2n1 [Example 17, 2-(1-isopropyl-4-methyl-1H-pyrazol-5-yl)-8-(4-(1-methyl-4-(trifluoromethyl)-1H-imidazol-2-yl)benzyl)-[1,2,4]triazolo[1,5-b]pyridazine] |  | 39.5 nM | 
10 | COc1ncnc(C2CC2)c1-c1nc2c(Cc3ccc(-c4nc(C(F)(F)F)cn4C)cc3)cncn2n1 [Example 19, 2-(4-cyclopropyl-6-methoxypyrimidin-5-yl)-8-(4-(1-methyl-4-(trifluoromethyl)-1H-imidazol-2-yl)benzyl)-[1,2,4]triazolo[1,5-c]pyrimidine] |  | 44.8 nM | 138 nM
11 | COc1ncnc(C2CC2)c1-c1nc2cncc(Cc3ccc(-c4nc(C(F)(F)F)cn4C)cc3)n2n1 [Example 22, 2-(4-cyclopropyl-6-methoxypyrimidin-5-yl)-5-(4-(1-methyl-4-(trifluoromethyl)-1H-imidazol-2-yl)benzyl)-[1,2,4]triazolo[1,5-a]pyrazine] | 227 nM |  | 147 nM
12 | COc1ncnc(C2CC2)c1-c1nc2nccc(Cc3ccc(-c4nc(C(F)(F)F)cn4C)cc3)n2n1 [Example 23, 2-(4-cyclopropyl-6-methoxypyrimidin-5-yl)-7-(4-(1-methyl-4-(trifluoromethyl)-1H-imidazol-2-yl)benzyl)-[1,2,4]triazolo[1,5-a]pyrimidine] | 496 nM |  | 175 nM
13 | COc1ncnc(OC)c1-c1nc2c(Cc3ccc(-c4nc(C(F)(F)F)cn4C)cc3)cccn2n1 [Example 27, 2-(4,6-dimethoxypyrimidin-5-yl)-8-(4-(1-methyl-4-(trifluoromethyl)-1H-imidazol-2-yl)benzyl)-[1,2,4]triazolo[1,5-a]pyridine] | 158 nM |  | 
14 | COc1ncnc(C2CCC2)c1-c1nc2c(Cc3ccc(-c4nc(C(F)(F)F)cn4C)cc3)cccn2n1 [Example 28, 2-(4-cyclobutyl-6-methoxypyrimidin-5-yl)-8-(4-(1-methyl-4-(trifluoromethyl)-1H-imidazol-2-yl)benzyl)-[1,2,4]triazolo[1,5-a]pyridine] | 40.6 nM |  | 26 nM
15 | COc1ncnc(C2CC2)c1-c1nc2ccnc(Cc3ccc(-c4nc(C(F)(F)F)cn4C4CC4)cc3)n2n1 [Example 40, 5-(4-(1-cyclopropyl-4-(trifluoromethyl)-1H-imidazol-2-yl)benzyl)-2-(4-cyclopropyl-6-methoxypyrimidin-5-yl)-[1,2,4]triazolo[1,5-c]pyrimidine] | 21.1 nM |  | 19.9 nM
16 | COc1ncnc(C2CC2)c1-c1nc2ccnc(Cc3ccc(-c4nc(C(F)(F)F)cn4C)c(F)c3)n2n1 [Example 41, 2-(4-cyclopropyl-6-methoxypyrimidin-5-yl)-5-(3-fluoro-4-(1-methyl-4-(trifluoromethyl)-1H-imidazol-2-yl)benzyl)-[1,2,4]triazolo[1,5-c]pyrimidine] | 55.3 nM |  | 34.2 nM
